Data from US20240166630A1, “INDOLE DERIVATIVES AS SEROTONERGIC AGENTS USEFUL FOR THE TREATMENT OF DISORDERS RELATED THERETO” (Mindset Pharma Inc., priority 2021, published 2024).

System: male C57BL6 mice
Assay: Mouse head-twitch response (HTR)
Format: in vivo
Conditions: mice pretreated with M100907 prior to compound
Procedure: Male, C57BL/6J mice (body weight range 20-30 g) were dosed with the appropriate dose of test article, and following a 1-minute pre-treatment time, placed in individual observation chambers. Animals were visually assessed for the incidence head twitches continuously over a 1 hr period. Head twitches were defined as a rapid jerk of the head which was not elicited by an external tactile stimulus (Come and Pickering, Psychopharmacologia, 1967, 11(1): 65-78). Each head twitch was individually counted by a trained observer, and the data expressed as the mean±SEM of 6-10 mice per group. Mice were used in a single experiment only.
Dose response (0.3-3 mg/kg SC) 5-HT2A signs of WDS/BMC measured over 1h. Also locomotor activity and other 5-HT receptor signs measured. For example, the effect on various doses of exemplary compound of Formula I-B, I-B-1, on head-twitch response (HTR) in male C57BL6 mice was studied. The mice were treated with exemplary compound I-B-1 (0.03-10 mg/kg) by SC route in a vehicle of 10% DMSO in Saline (2 drops HCl (0.1M)+1 drop Tween 80 were added), and the total number of head twitches were recorded over a one hour period. Data is expressed as mean±SEM (see, FIG. 1).

COc1cccc([C@H](O)C2CCN(CCc3ccc(F)cc3)CC2)c1OC [Compound M100907]
effect of pretreatment with 5-HT2AR antagonist on HTR induced by compounds of Formula I-B: completely blocked
